From patent US20230066011A1, “PYRROLOPYRIMIDINE DERIVATIVE, AND PHARMACEUTICAL COMPOSITION FOR PREVENTING OR TREATING PROTEIN KINASE-RELATED DISEASE COMPRISING SAME AS ACTIVE INGREDIENT” (VORONOI CO., LTD., priority 2019, published 2023)

Key:
human GST-CLK1 = biological target: T1, human GST-CLK1 (Homo sapiens, UniProt P49759); assay: GST-CLK1 enzyme inhibition, ADP-Glo kinase assay; format: biochemical; conditions: ATP 10 μM, GST-CLK1 129-end
T1 construct: purified human GST-CLK1 (129-end, SignalChem) enzyme; purchased SignalChem
T1 sequence (P49759 129-484 limits assumed): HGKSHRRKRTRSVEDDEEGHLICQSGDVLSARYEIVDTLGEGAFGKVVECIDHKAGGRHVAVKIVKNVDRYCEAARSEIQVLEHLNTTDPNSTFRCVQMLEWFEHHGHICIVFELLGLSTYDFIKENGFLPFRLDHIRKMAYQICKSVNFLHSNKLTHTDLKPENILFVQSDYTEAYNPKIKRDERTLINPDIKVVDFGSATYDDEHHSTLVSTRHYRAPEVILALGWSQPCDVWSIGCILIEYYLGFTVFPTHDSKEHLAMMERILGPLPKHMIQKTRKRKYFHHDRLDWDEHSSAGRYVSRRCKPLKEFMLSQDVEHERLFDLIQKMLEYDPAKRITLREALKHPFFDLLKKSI
In short: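 Human GST-CLK1 (129-end, 3 ng) reacted with substrate and 10 μM ATP for 1 h at 25° C in 40 mM Tris-HCl pH 7.4, 20 mM MgCl2, 0.5 mg/mL BSA, 50 μM DTT. ADP-Glo luminescence was normalised to solvent control; IC50 (nM) from 3 data sets.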

human GST-DYRK1A = biological target: T2, human GST-DYRK1A (Homo sapiens, UniProt Q13627); assay: GST-DYRK1A enzyme inhibition, ADP-Glo kinase assay; format: biochemical; conditions: ATP 10 μM, GST-DYRK1A full length, read-out: DYRK1 IC50
T2 construct: purified human GST-DYRK1A (full length, Thermo Scientifics) enzyme; purchased Thermo Scientifics
In short: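 Full-length human GST-DYRK1A (10 ng) with 10 μM ATP and specific substrate in 40 mM Tris-HCl pH 7.4, 20 mM MgCl2, 0.5 mg/mL BSA, 50 μM DTT, 1 h at 25 °C. ADP formation read by ADP-Glo luminescence relative to solvent control; IC50 from three data sets.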

IC50 (human GST-CLK1) [nM]	IC50 (human GST-DYRK1A) [nM]	Compound
< 100	101 to 300	CCNc1nc(Nc2ccc(C(=O)N3CCN(C4COC4)CC3)c3c2OCCO3)nc2[nH]cc(C#N)c12 [Example 281, 4-(ethylamino)-2-((8-(4-(oxetan-3-yl)piperazine-1-carobnyl)-2,3-dihydrobenzo[b][1,4]dioxin-5-yl)amino)-7H-pyrrolo[2,3-d]pyrimidine-5-carbonitrile]
101 to 300	301 to 1000	CCCNc1nc(Nc2ccc(P3(=O)CCN(C4CC4)CC3)cc2OC)nc2[nH]cc(C#N)c12 [Example 282, 2-((4-(1-cyclopropyl-4-oxido-1,4-azaphosphinan-4-yl)-2-methoxyphenyl)amino)-4-(propylamino)-7H-pyrrolo[2,3-d]pyrimidine-5-carbonitrile]
101 to 300	301 to 1000	CCCNc1nc(Nc2ccc(P3(=O)CCN(C4COC4)CC3)cc2OC)nc2[nH]cc(C#N)c12 [Example 283, 2-((2-methoxy-4-(1-(oxetan-3-yl)-4-oxido-1,4-azaphosphinan-4-yl)phenyl)amino)-4-(propylamino)-7H-pyrrolo[2,3-d]pyrimidine-5-carbonitrile]
< 100	301 to 1000	CCCNc1nc(Nc2ccc(C(=O)N3CCN(C4COC4)CC3)c3c2OCCO3)nc2[nH]cc(C#N)c12 [Example 284, 2-((8-(4-(oxetan-3-yl)piperazine-1-carbonyl)-2,3-dihydrobenzo[b] [1,4]dioxin-5-yl)amino)-4-(propylamino)-7H-pyrrolo[2,3-d]pyrimidine-5-carbonitrile]
101 to 300	301 to 1000	COc1cc(P2(=O)CCN(C3CC3)CC2)ccc1Nc1nc(NC2CC2)c2c(C#N)c[nH]c2n1 [Example 285, 2-((4-(1-cyclopropyl-4-oxido-1,4-azaphosphinan-4-yl)-2-methoxyphenyl)a-mino)-4-(cyclo-propylamino)-7H-pyrrolo[2,3-d]pyrimidine-5-carbonitrile]
< 100	301 to 1000	COc1cc(P2(=O)CCN(C3COC3)CC2)ccc1Nc1nc(NC2CC2)c2c(C#N)c[nH]c2n1 [Example 286, 4-(cyclo-propylamino)-2-((2-methoxy-4-(1-(oxetna-3-yl)-4-oxido-1,4-azaphosphinan-4-yl)phenyl)amino)-7H-pyrrolo[2,3-d]pyrimidine-5-carbonitrile]
< 100	301 to 1000	N#Cc1c[nH]c2nc(Nc3ccc(C(=O)N4CCN(C5COC5)CC4)c4c3OCCO4)nc(NC3CC3)c12 [Example 287, 4-(cyclo-propylamino)-2-((8-(4-(oxetan-3-yl)piperazine-1-carbonyl)-2,3-dihydrobenzo[b] [1,4]dioxin-5-yl)amino)-7H-pyrrolo[2,3-d]pyrimidine-5-carbonitrile]
301 to 1000	301 to 1000	COc1cc(P2(=O)CCN(C3CC3)CC2)ccc1Nc1nc(NCC(C)C)c2c(C#N)c[nH]c2n1 [Example 290, 2-((4-(1-cyclopropyl-4-oxido-1,4-azaphosphinan-4-yl)-2-methoxyphenyl)a-mino)-4-(isobutylamino)-7H-pyrrolo[2,3-d]pyrimidine-5-carbonitrile]
101 to 300	301 to 1000	COc1cc(P2(=O)CCN(C3COC3)CC2)ccc1Nc1nc(NCC(C)C)c2c(C#N)c[nH]c2n1 [Example 291, 4-(isobutyl-amino)-2-((2-methoxy-4-(1-(oxetan-3-yl)-4-oxido-1,4-azaphosphinan-4-yl)phenyl)amino)-7H-pyrrolo[2,3-d]pyrimidine-5-carbonitrile]
< 100	301 to 1000	COc1cc(P2(=O)CCN(C3CC3)CC2)ccc1Nc1nc(NC(C)C)c2c(C#N)c[nH]c2n1 [Example 292, 2-((4-(1-cyclopropyl-4-oxido-1,4-azaphosphinan-4-yl)-2-methoxyphenyl)a-mino)-4-(isopropylamino)-7H-pyrrolo[2,3-d]pyrimidine-5-carbonitrile]
< 100	101 to 300	COc1cc(P2(=O)CCN(C3COC3)CC2)ccc1Nc1nc(NC(C)C)c2c(C#N)c[nH]c2n1 [Example 293, 4-(isopropylamino)-2-((2-methoxy-4-(1-(oxetan-3-yl)-4-oxido-1,4-azaphosphinan-4-yl)phenyl)amino)-7H-pyrrolo[2,3-d]pyrimidine-5-carbonitrile]
< 100	301 to 1000	CC[C@@H](C)Nc1nc(Nc2ccc(P3(=O)CCN(C4CC4)CC3)cc2OC)nc2[nH]cc(C#N)c12 [Example 294, (R)-4-(sec-butylamino)-2-((4-(1-cyclopropyl-4-oxido-1,4-azaphosphinan-4-yl)-2-methoxyphenyl)a-mino)-7H-pyrrolo[2,3-d]pyrimidine-5-carbonitrile]
< 100	301 to 1000	CC[C@@H](C)Nc1nc(Nc2ccc(P3(=O)CCN(C4COC4)CC3)cc2OC)nc2[nH]cc(C#N)c12 [Example 295, (R)-4-(sec-butylamino)-2-((2-methoxy-4-(1-(oxetan-3-yl)-4-oxido-1,4-azaphosphinan-4-yl)phenyl)amino)-7H-pyrrolo[2,3-d]pyrimidine-5-carbonitrile]
301 to 1000	301 to 1000	CC[C@H](C)Nc1nc(Nc2ccc(P3(=O)CCN(C4CC4)CC3)cc2OC)nc2[nH]cc(C#N)c12 [Example 296, (S)-4-(sec-butylamino)-2-((4-(1-cyclopropyl-4-oxido-1,4-azaphosphinan-4-yl)-2-methoxyphenyl)a-mino)-7H-pyrrolo[2,3-d]pyrimidine-5-carbonitrile]
101 to 300	301 to 1000	CC[C@H](C)Nc1nc(Nc2ccc(P3(=O)CCN(C4COC4)CC3)cc2OC)nc2[nH]cc(C#N)c12 [Example 297, (S)-4-(sec-butylamino)-2-((2-methoxy-4-(1-(oxetan-3-yl)-4-oxido-1,4-azaphosphinan-4-yl)phenyl)amino)-7H-pyrrolo[2,3-d]pyrimidine-5-carbonitrile]
301 to 1000	301 to 1000	COc1cc(P2(=O)CCN(C3CC3)CC2)ccc1Nc1nc(N[C@@H]2CCOC2)c2c(C#N)c[nH]c2n1 [Example 298, (R)-2-((4-(1-cyclopropyl-4-oxido-1,4-azaphosphinan-4-yl)-2-methoxyphenyl)a-mino)-4-((tetrahydrofuran-3-yl)amino)-7H-pyrrolo[2,3-d]pyrimidine-5-carbonitrile]
101 to 300	301 to 1000	COc1cc(P2(=O)CCN(C3COC3)CC2)ccc1Nc1nc(N[C@@H]2CCOC2)c2c(C#N)c[nH]c2n1 [Example 299, (R)-2-((2-methoxy-4-(1-(oxetan-3-yl)-4-oxido-1,4-azaphosphinan-4-yl)phenyl)amino)-4-((tetrahydrofuran-3-yl)amino)-7H-pyrrolo[2,3-d]pyrimidine-5-carbonitrile]
< 100	301 to 1000	COc1cc(P2(=O)CCN(C3CC3)CC2)ccc1Nc1nc(N[C@H]2CCOC2)c2c(C#N)c[nH]c2n1 [Example 300, (S)-2-((4-(1-cyclopropyl-4-oxido-1,4-azaphosphinan-4-yl)-2-methoxyphenyl)a-mino)-4-((tetrahydrofuran-3-yl)amino)-7H-pyrrolo[2,3-d]pyrimidine-5-carbonitrile]
< 100	301 to 1000	COc1cc(P2(=O)CCN(C3COC3)CC2)ccc1Nc1nc(N[C@H]2CCOC2)c2c(C#N)c[nH]c2n1 [Example 301, (S)-2-((2-methoxy-4-(1-(oxetan-3-yl)-4-oxido-1,4-azaphosphinan-4-yl)phenyl)amino)-4-((tetrahydrofuran-3-yl)amino)-7H-pyrrolo[2,3-d]pyrimidine-5-carbonitrile]
301 to 1000	301 to 1000	COc1cc(P2(=O)CCN(C3CC3)CC2)ccc1Nc1nc(NC2CCOCC2)c2c(C#N)c[nH]c2n1 [Example 302, 2-((4-(1-cyclopropyl-4-oxido-1,4-azaphosphinan-4-yl)-2-methoxyphenyl)a-mino)-4-((tetrahydro-2H-pyran-4-yl)amino)-7H-pyrrolo[2,3-d]pyrimidine-5-carbonitrile]
301 to 1000	301 to 1000	COc1cc(P2(=O)CCN(C3COC3)CC2)ccc1Nc1nc(NC2CCOCC2)c2c(C#N)c[nH]c2n1 [Example 303, 2-((2-methoxy-4-(1-(oxetan-3-yl)-4-oxido-1,4-azaphosphinan-4-yl)phenyl)amino)-4-((tetrahydro-2H-pyran-4-yl)amino)-7H-pyrrolo[2,3-d]pyrimidine-5-carbonitrile]
301 to 1000	301 to 1000	COc1cc(P2(=O)CCN(C3CC3)CC2)ccc1Nc1nc(NCC2CC2)c2c(C#N)c[nH]c2n1 [Example 304, 2-((4-(1-cyclopropyl-4-oxido-1,4-azaphosphinan-4-yl)-2-methoxyphenyl)a-mino)-4-((cyclo-propylmeth-yl)amino)-7H-pyrrolo[2,3-d]pyrimidine-5-carbonitrile]
< 100	101 to 300	COc1cc(P2(=O)CCN(C3COC3)CC2)ccc1Nc1nc(NCC2CC2)c2c(C#N)c[nH]c2n1 [Example 305, 4-((cyclo-propylmeth-yl)amino)-2-((2-methoxy-4-(1-(oxetan-3-yl)-4-oxido-1,4-azaphosphinan-4-yl)phenyl)amino)-7H-pyrrolo[2,3-d]pyrimidine-5-carbonitrile]
301 to 1000	301 to 1000	COc1cc(P2(=O)CCN(C3CC3)CC2)ccc1Nc1nc(NCC2CCC2)c2c(C#N)c[nH]c2n1 [Example 306, 4-((cyclo-butylmethyl)amino)-2-((4-(1-cyclopropyl-4-oxido-1,4-azaphosphinan-4-yl)-2-methoxyphenyl)a-mino)-7H-pyrrolo[2,3-d]pyrimidine-5-carbonitrile]
